Test results taken from ChEMBL document CHEMBL5728678, “Heteroaryl compounds as BTK inhibitors and uses thereof” (2021).

Assays:
[1] = biological target: Tyrosine-protein kinase BTK (Homo sapiens, UniProt Q06187); assay: Microfluidic Off-Chip Mobility Shift Assay Protocol for Potency Assessment Against BTK Enzyme: Briefly, 2.5× stocks of full-length human BTK (08-080) from CarnaBio USA, Inc., Natick, Mass., 1.6×ATP and appropriate kinKDR peptide substrate (FITC-AHA-[…]-NH2; developed in-house) were prepared in kinase reaction buffer consisting of 25 mM MgCl2, 0.015% Brij-35 (30%), 100 mM HEPES, pH 7.5, and 10 mM DTT. 5 uL of enzyme buffer and 7.5 uL of ATP/kinKDR peptide substrate mix were added to Matrix (#115304) 384-well, sterile, polypropylene plates (Thermo Fisher Scientific, Hudson, N.H.) with 125 nL of serially diluted compounds prepared in 100% DMSO, and incubated for 90 min. at 27° C. Following the incubation period, reactions were stopped by adding 60 uL stop buffer consisting of 100 mM HEPES, pH 7.5, 0.015% Brij-35 (30%), 0.277% Coating Reagent #3 (Caliper Life Sciences, Mountain View, Calif.), 5% DMSO. Stopped reactions were monitored at −2 PSI, −3000 V/−700 V in a LabChip 3000 plate reader from Caliper Life Sciences, a PerkinElmer Company (Hopkinton, Mass.), and the activity was measured by off-chip mobility shift assay measuring the charge/mass difference between substrate and product resulting from peptide phosphorilation. IC50 and efficacy were determined by plotting log [Inhibitor] vs. % Activity in GeneData Screener (Basel. Switzerland).
Tyrosine-protein kinase BTK (Homo sapiens, UniProt Q06187), sequence (Q06187 whole entry): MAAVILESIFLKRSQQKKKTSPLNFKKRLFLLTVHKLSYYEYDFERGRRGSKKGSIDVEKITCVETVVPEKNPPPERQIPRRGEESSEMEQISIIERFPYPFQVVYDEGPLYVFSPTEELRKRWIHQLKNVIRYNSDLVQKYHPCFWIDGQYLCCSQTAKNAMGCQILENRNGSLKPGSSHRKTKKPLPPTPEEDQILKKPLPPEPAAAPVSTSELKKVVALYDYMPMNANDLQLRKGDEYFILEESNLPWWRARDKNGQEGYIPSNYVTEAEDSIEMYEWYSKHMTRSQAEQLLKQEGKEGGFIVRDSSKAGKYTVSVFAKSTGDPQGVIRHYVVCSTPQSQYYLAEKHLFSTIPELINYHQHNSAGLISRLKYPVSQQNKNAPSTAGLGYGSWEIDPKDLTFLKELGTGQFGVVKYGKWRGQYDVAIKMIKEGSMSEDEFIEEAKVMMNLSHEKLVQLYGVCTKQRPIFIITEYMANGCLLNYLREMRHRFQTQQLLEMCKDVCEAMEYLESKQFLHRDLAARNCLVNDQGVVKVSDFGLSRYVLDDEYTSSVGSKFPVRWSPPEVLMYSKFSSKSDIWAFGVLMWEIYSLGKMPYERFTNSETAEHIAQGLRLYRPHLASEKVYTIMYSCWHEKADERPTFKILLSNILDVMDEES

[2] = biological target: Tyrosine-protein kinase BTK (Homo sapiens, UniProt Q06187, C481S); assay: Microfluidic Off-Chip Mobility Shift Assay Protocol for Potency Assessment Against BTK C481S Enzyme: The protocol below describes a microfluidic, off-chip mobility shift kinase assay to measure inherent potency of compounds against BTK C481S enzyme. The mechanics of the assay platform are described by the vendor (PerkinElmer, Hopkinton, Mass.) on their website at the following URL: http://caliperls.com.Briefly, 2.5× stocks of His-TEV-hsBTK(328-659)(C481S) from the Merck Serono Protein Purification Laboratory in Darmstadt, Germany (PCS, Q27/234), 1.6×ATP and appropriate KinKDR peptide substrate (FITC-AHA-[…]-NH2; Tufts University Core Facility custom synthesis) were prepared in kinase reaction buffer consisting of 25 mM MgCl2, 0.015% Brij-35 (30%), 100 mM HEPES, pH 7.5, and 10 mM DTT.5 uL of enzyme buffer and 7.5 uL of ATP/KinKDR peptide substrate mix were added to Matrix (#4315) 384-well, sterile, flat-bottom polypropylene plates (Thermo Fisher Scientific, Hudson, N.H.) with 125 nL of serially diluted compounds prepared in 100% DMSO, and incubated for 90 min. at 25° C. Following the incubation period, reactions were terminated by adding 65 uL quench buffer consisting of 100 mM HEPES, pH 7.5, 0.015% Brij-35 (30%), 0.277% Coating Reagent #3 (PerkinElmer, Mountain View, Calif.), 5% DMSO. Terminated reactions were monitored at −2 PSI, −3000 V/−700 Volts in a LabChip 3000 plate reader from Caliper Life Sciences, a PerkinElmer Company (Hopkinton, Mass.), and the activity was quantified by laser-induced fluorescence measuring the charge/mass difference between substrate and product resulting from peptide phosphorylation. IC50 and efficacy were determined by plotting log [Inhibitor] vs. % Activity in GeneData Screener (Basel, Switzerland).
Tyrosine-protein kinase BTK (Homo sapiens, UniProt Q06187, C481S), sequence (Q06187 2-659 C481S limits assumed): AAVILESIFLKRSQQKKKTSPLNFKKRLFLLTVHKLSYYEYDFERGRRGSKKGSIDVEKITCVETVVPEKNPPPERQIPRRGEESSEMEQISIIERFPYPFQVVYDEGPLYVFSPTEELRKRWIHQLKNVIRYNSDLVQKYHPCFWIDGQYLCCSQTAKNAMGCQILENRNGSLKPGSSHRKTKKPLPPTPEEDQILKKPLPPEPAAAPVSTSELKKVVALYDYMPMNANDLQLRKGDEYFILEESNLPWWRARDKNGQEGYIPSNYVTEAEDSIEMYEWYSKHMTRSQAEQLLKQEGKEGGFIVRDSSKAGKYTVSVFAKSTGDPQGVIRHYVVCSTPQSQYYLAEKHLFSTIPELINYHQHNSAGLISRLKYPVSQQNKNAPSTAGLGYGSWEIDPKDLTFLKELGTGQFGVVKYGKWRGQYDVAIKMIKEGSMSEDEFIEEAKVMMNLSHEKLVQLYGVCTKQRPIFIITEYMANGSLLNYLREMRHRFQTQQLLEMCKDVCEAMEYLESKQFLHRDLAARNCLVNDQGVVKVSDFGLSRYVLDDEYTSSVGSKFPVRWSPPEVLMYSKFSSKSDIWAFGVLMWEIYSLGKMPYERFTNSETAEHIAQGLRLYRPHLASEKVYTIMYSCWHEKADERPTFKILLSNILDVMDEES

Row | SMILES | IC50 [1] [nM] | IC50 [2] [nM]
1 | CC(C)(C)c1noc(C(=O)NCc2ccc(-c3ccnc4[nH]c(C5=CCNCC5)nc34)cc2F)n1 | < 100 | –
2 | CCn1cc(-c2nc3c(-c4ccc(CNC(=O)c5cc(C(C)(C)C)on5)c(F)c4)ccnc3[nH]2)cn1 | < 100 | –
3 | Cn1cc(-c2nc3c(-c4cccc(CNC(=O)c5noc(C(C)(C)C)n5)c4)ccnc3[nH]2)cn1 | – | < 100
4 | Cn1cc(-c2nc3c(-c4ccc(CNc5nccc6c5OCCN6C(=O)OC(C)(C)C)c(F)c4)ccnc3[nH]2)cn1 | > 5000 | –
5 | CC(C)(C)c1noc(C(=O)NCc2ccc(-c3ccnc4[nH]c([C@@H]5C[C@H]5c5ccccc5)nc34)cc2F)n1 | > 5000 | –
6 | CC(C)(C)c1nc(C(=O)NCc2ccc(-c3ccnc4[nH]c(-c5cnn(C6COC6)c5)nc34)cc2F)no1 | – | < 100
7 | CC(C)(C)c1nc(C(=O)NCc2ccc(-c3ccnc4[nH]c(-c5cnn(C6CCOCC6)c5)nc34)cc2F)no1 | – | < 100
